The values that follow come from ChEMBL document CHEMBL1201862, “PubChem BioAssay data set” (2004).

Among the test systems are M14; UACC-257; IGROV-1; NCI-H226; OVCAR-8; CAKI-1; BT-549; ACHN; COLO 205; KM12; Malme-3M; SNB-75; SK-MEL-28; OVCAR-5; NCI-H522; SF-539; Hs-578T; PC-3; A549.
What all share (test): NCI tumour cell line growth inhibition, 48 h

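Test compounds were applied to cells in 96-well plates for 48 hours at 5 doses. GI50: concentration for 50% inhibition of growth.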 The source made the active and inactive calls. Rule as the data show it: active = GI50 up to about 1.1 µM and inactive = higher. Where a SMILES comes first, the peptide text is derived from it. The star is where a group is joined. Boc = CC(C)(C)OC(=O)*; Bn = c1ccc(C*)cc1

Regarding `Cn1c(=O)c2c(ncn2CN2CCN(Cn3cnc4c3c(=O)n(C)c(=O)n4C)CC2)n(C)c1=O`, the GI50 with M14 is 38.5 µM (inactive); in the experiment on UACC-257, 47.1 µM (inactive); with IGROV-1, 78.5 µM (inactive); with NCI-H226, > 100 µM (inactive); with OVCAR-8, 44.6 µM (inactive); in the experiment with CAKI-1 it was 77.3 µM (inactive). The GI50 in the experiment on BT-549 is 62.2 µM (inactive); with ACHN, 27 µM (inactive); with COLO 205, 39.4 µM (inactive); in the experiment on KM12, 92.5 µM (inactive); with Malme-3M it was 73.6 µM (inactive); with SNB-75, 74.8 µM (inactive). The GI50 was 48.1 µM (inactive) with SK-MEL-28; > 100 µM (inactive) in the experiment on OVCAR-5; 44.7 µM (inactive) with NCI-H522; 56.2 µM (inactive) with SF-539; > 100 µM (inactive) in the experiment on Hs-578T; 53.5 µM (inactive) in the experiment with PC-3. Moreover, the GI50 with A549 is 34.2 µM (inactive).

Regarding `O=C(Nc1nc(C23CC4CC(CC(C4)C2)C3)cs1)c1cc2ccccc2oc1=O`, the GI50 with UACC-257, with IGROV-1, with NCI-H226, in the experiment on OVCAR-8, in the experiment on CAKI-1 and in the experiment with BT-549 was > 100 µM (inactive) throughout. Besides, the GI50 in the experiment on ACHN, with COLO 205, in the experiment with KM12, in the experiment with Malme-3M, with SNB-75 and in the experiment on SK-MEL-28 was > 100 µM (inactive) in each case. Further, the GI50 with OVCAR-5 was > 100 µM (inactive); with NCI-H522, > 100 µM (inactive); in the experiment with SF-539 it was > 100 µM (inactive); in the experiment on Hs-578T, > 100 µM (inactive); in the experiment on PC-3, > 100 µM (inactive); in the experiment on A549, 38.2 µM (inactive).

On to `C/C=C1/CN2CCC34c5ccccc5N5C(=O)C(C6CC78c9ccccc9N9C(=O)C=CC(C%10CC7N6C/C%10=C/C)C98)=CC(C1CC23)C54` (stereo not given), for which the GI50 with M14 was 5.52 µM (inactive); in the experiment on UACC-257 it was 5.62 µM (inactive); in the experiment on IGROV-1, 4.43 µM (inactive); in the experiment on NCI-H226, 7.13 µM (inactive); in the experiment on OVCAR-8, 2.06 µM (inactive); with CAKI-1 it was 8.71 µM (inactive). The GI50 in the experiment on BT-549 is 8.77 µM (inactive); with ACHN, 7 µM (inactive); with COLO 205, 5.09 µM (inactive); in the experiment on KM12 it was 9.55 µM (inactive); with Malme-3M, 7.82 µM (inactive); in the experiment with SNB-75, 6.62 µM (inactive). Also, the GI50 with SK-MEL-28 was 5.41 µM (inactive); in the experiment on OVCAR-5, 10.2 µM (inactive); in the experiment with NCI-H522 it was 3.11 µM (inactive); with SF-539, 1.11 µM (active); with Hs-578T, 8.11 µM (inactive); in the experiment on PC-3, 2.1 µM (inactive). In addition, the GI50 with A549 is 8.15 µM (inactive).

`CCCCCCCCC/C=C1/CC(CO)(COC(=O)CC(C(C)C)C(C)C)OC1=O` (stereo not given): the GI50 in the experiment on M14 is 2.39 µM (inactive); with UACC-257, 12.9 µM (inactive); in the experiment with IGROV-1, 15.4 µM (inactive); in the experiment on NCI-H226, 6.07 µM (inactive); in the experiment with OVCAR-8 it was 16 µM (inactive); in the experiment with CAKI-1 it was 4.18 µM (inactive). In addition, the GI50 with BT-549 is 14.3 µM (inactive); with ACHN it was 3.17 µM (inactive); in the experiment with COLO 205, 0.193 µM (active); in the experiment with KM12, 8.85 µM (inactive); in the experiment with Malme-3M, 0.515 µM (active); in the experiment with SNB-75, 4.51 µM (inactive). Also, the GI50 is 14.4 µM (inactive) in the experiment with SK-MEL-28; 12.1 µM (inactive) in the experiment with OVCAR-5; 10.4 µM (inactive) with NCI-H522; 10.2 µM (inactive) in the experiment with SF-539; 0.109 µM (active) with Hs-578T; 6.75 µM (inactive) with PC-3. Also, the GI50 with A549 was 1.58 µM (inactive).

As to `COC(=O)[C@]1(C)CCC[C@]2(C)[C@@H](CCC(=O)C(C)C)[C@]3(C=O)O[C@@H]3C[C@H]21`, the GI50 is 32.1 µM (inactive) with M14; 37.9 µM (inactive) with UACC-257; 60.1 µM (inactive) with NCI-H226; 39.4 µM (inactive) in the experiment with OVCAR-8; 14.8 µM (inactive) with CAKI-1; 24.7 µM (inactive) with BT-549. Also, the GI50 with ACHN is 27 µM (inactive); in the experiment on COLO 205, 35 µM (inactive); in the experiment on KM12 it was 34.3 µM (inactive); with Malme-3M, 53.1 µM (inactive); with SNB-75, 17.1 µM (inactive); in the experiment on SK-MEL-28, > 100 µM (inactive). Besides, the GI50 is > 100 µM (inactive) in the experiment on OVCAR-5; 16.8 µM (inactive) in the experiment on NCI-H522; 74.6 µM (inactive) in the experiment on SF-539; 41.6 µM (inactive) in the experiment on Hs-578T; 28.4 µM (inactive) in the experiment with PC-3; > 100 µM (inactive) with A549.

On to `N#C/C(=C\c1ccc([N+](=O)[O-])o1)c1n[nH]c(Cc2ccccc2)n1`, for which the GI50 with M14 is 1.63 µM (inactive); in the experiment with UACC-257, 1.91 µM (inactive); in the experiment on IGROV-1 it was 1.4 µM (inactive); in the experiment on NCI-H226, 1.65 µM (inactive); with OVCAR-8, 2.84 µM (inactive); in the experiment on CAKI-1, 1.95 µM (inactive). Also, the GI50 in the experiment on BT-549 is 2.53 µM (inactive); in the experiment on ACHN, 1.78 µM (inactive); in the experiment on COLO 205, 1.23 µM (inactive); in the experiment on KM12, 2.19 µM (inactive); in the experiment on Malme-3M, 1.94 µM (inactive); in the experiment with SNB-75, 2.52 µM (inactive). For the same molecule, the GI50 with SK-MEL-28 is 2.03 µM (inactive); in the experiment with OVCAR-5 it was 1.64 µM (inactive); in the experiment on NCI-H522, 0.368 µM (active); in the experiment with SF-539, 1.32 µM (inactive); in the experiment with Hs-578T, 3.98 µM (inactive); with PC-3 it was 2.45 µM (inactive). The GI50 with A549 was 2.56 µM (inactive).

For `Cc1cc(=O)[nH]c2c1C(=O)c1c(C)cc(=O)n(C)c1C2=O`, the GI50 with M14 was 0.0147 µM (active); in the experiment on UACC-257, 0.0152 µM (active); with IGROV-1, 0.202 µM (active); in the experiment with NCI-H226 it was 0.0293 µM (active); with OVCAR-8, 0.0832 µM (active); with CAKI-1, 0.0678 µM (active). In addition, the GI50 is 0.0228 µM (active) with BT-549; 0.0995 µM (active) with ACHN; 0.0162 µM (active) in the experiment on COLO 205; 0.0678 µM (active) with KM12; 0.00177 µM (active) with Malme-3M; 0.0176 µM (active) in the experiment on SNB-75. Further, the GI50 with SK-MEL-28 was 0.0191 µM (active); with OVCAR-5, 0.166 µM (active); in the experiment on NCI-H522, 0.046 µM (active); in the experiment with SF-539 it was 0.0208 µM (active); in the experiment on Hs-578T it was 0.0262 µM (active); in the experiment with PC-3, 0.157 µM (active). In the experiment on A549, the GI50 was 0.188 µM (active).

As to `COC(=O)c1nc2c3c(cccc3c1C(=O)OC)Nc1ccccc1-2`, the GI50 in the experiment on M14 was 44.8 µM (inactive); in the experiment on UACC-257, 61.4 µM (inactive); with IGROV-1 it was 32 µM (inactive); with NCI-H226 it was 65.3 µM (inactive); in the experiment with CAKI-1 it was 50.2 µM (inactive); in the experiment on BT-549 it was 43.2 µM (inactive). In addition, the GI50 with ACHN was 36.6 µM (inactive); with COLO 205, 28.1 µM (inactive); in the experiment on KM12, 28.2 µM (inactive); in the experiment on Malme-3M, 29.2 µM (inactive); with SNB-75, 34.5 µM (inactive); in the experiment with SK-MEL-28, 59.7 µM (inactive). The GI50 was > 100 µM (inactive) in the experiment on OVCAR-5; 10.7 µM (inactive) with NCI-H522; 52.7 µM (inactive) in the experiment on SF-539; 26.7 µM (inactive) with Hs-578T; 15.5 µM (inactive) in the experiment on PC-3; 35.6 µM (inactive) with A549.

For `COC(=O)C(CC(C)C)NC(=O)C(C)NC(=O)C(Cc1ccc(OCc2ccccc2)cc1)NC(=O)C(COCc1ccccc1)NC(=O)OC(C)(C)C` (stereo not given) (Boc-S(Bn)Y(Bn)AL-OMe; configuration not given here), the GI50 in the experiment with M14, in the experiment with IGROV-1, with NCI-H226, in the experiment with OVCAR-8, in the experiment with CAKI-1 and in the experiment on BT-549 was > 100 µM (inactive) in each case. Besides, the GI50 in the experiment on ACHN, with COLO 205, in the experiment on KM12, in the experiment with Malme-3M, with SNB-75 and in the experiment on SK-MEL-28 was > 100 µM (inactive) each time. Moreover, the GI50 with OVCAR-5 was > 100 µM (inactive); in the experiment on NCI-H522, > 100 µM (inactive); with SF-539 it was > 100 µM (inactive); in the experiment with Hs-578T, 58.3 µM (inactive); in the experiment on PC-3, > 100 µM (inactive); in the experiment with A549, > 100 µM (inactive).

`NC(=O)/C=C/NC(=O)/C=N\O`: the GI50 with M14, in the experiment with UACC-257, in the experiment on IGROV-1, in the experiment with NCI-H226, in the experiment on OVCAR-8 and in the experiment on CAKI-1 was > 100 µM (inactive) throughout. The GI50 with BT-549, in the experiment with ACHN, in the experiment on COLO 205, with KM12, with Malme-3M and in the experiment with SNB-75 was > 100 µM (inactive) in each case. Also, the GI50 in the experiment on SK-MEL-28, in the experiment with OVCAR-5, with NCI-H522, in the experiment on SF-539, with Hs-578T and in the experiment on PC-3 was > 100 µM (inactive) each time.
